In one assay the test system is Rat white adipocytes. Put plainly: Stimulation of differentiation of the adipocytes (Oil Red O). In kind it is cell-based. As to conditions: 100 nM test compound, 5 days, Oil Red O ABS550, control = 100%, blank = 0%, Table 7; for activity at 0.1 µM: Rattus norvegicus, Adipocyte, 120 h, read-out: Rate of Differentiation (%). A digest of the protocol: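 Oil Red O lipid staining, absorbance 550 nm after DMSO extraction, quantified differentiation of rat white adipocytes exposed 5 days to compound (final 100 nM, 0.1% DMSO) in differentiation medium. Percent differentiation normalised between cell-free blank (0%) and DMSO control (100%).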

Assay [1] relates to human colon cancer cells COL-2-JCK. The assay is described as follows: Inhibition of colony forming activity in human colon cancer cells. In kind it is cell-based. Conditions: Homo sapiens, 240 h; 1 μM test compound; 10 days; sum of colony areas vs control; read-out: Inhibition Rate (%) against the colony forming activity. A digest of the protocol: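 COL-2-JCK cells seeded at 300 cells/well and grown 10 days at 37 °C, 5% CO2 with compound at 1 μM final (0.1% DMSO). Colonies stained with crystal violet in formalin; inhibition % = (1 − treated/control colony area)×100.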

The test system of the next assay is TNF-α production. Put plainly: Inhibitory activity against cytokine (TNF-α) production in LPS-stimulated RAW264.7 cells. In kind it is cell-based, mouse. As to conditions: 1 μM test compound, LPS 10 ng/mL; for inhibition at 1 µM: Mus musculus, RAW264.7, 15 h. A digest of the protocol: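 Mouse RAW264.7 macrophages (5,000 cells/well) stimulated with 10 ng/mL LPS (final) and treated with test compound at 1 μM final for 15 h at 37 °C. Supernatant mouse TNF-α measured by ELISA; % inhibition = 100−(A−B)/(C−B)×100, using unstimulated and LPS-only controls.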

Experimental findings from patent US20030134859A1 (SANKYO COMPANY, LIMITED, priority 2000, published 2003) are described below.

As usually defined, the inhibition is the relative decrease from the control value, in per cent. Consider `Cc1csc(NC(=O)c2cc([N+](=O)[O-])ccc2Cl)n1` [Example 3, N-(4-Methylthiazol-2-yl)-(2-chloro-5-nitrophenyl)carboxamide], for which the activity at 0.1 µM in the assay on Rat white adipocytes turned out to be 126%. For the same compound, the inhibition at 1 µM was 27% in assay [1] and 17% with TNF-α production.
The corresponding values for `O=C(Nc1nc2ccc(Cc3ccc(F)cc3)cc2s1)c1cc([N+](=O)[O-])ccc1Cl` [Example 90, N-[6-(4-Fluorobenzyl)benzothiazol-2-yl]-(2-chloro-5-nitrophenyl)carboxamide] are 131%, 47% and 19.4%.
In the case of `O=C(Nc1ccc(-c2ccc(O)cc2)cc1)c1cc([N+](=O)[O-])ccc1Cl` [Example 135, N-[4-(4-Hydroxyphenyl)phenyl]-2-(chloro-5-nitrophenyl)carboxamide], the “Rate of Differentiation (%)” value in the assay on Rat white adipocytes came to 128.0%. Besides, the “Inhibitory Activity (%) against TNF-α production” value in the assay on TNF-α production (15 hr) is on record as 16.6%.
